Literature values in patent US9144554B2, “Topical compositions for use in the prevention and/or treatment of dermatitis” (priority 2011, dated 2015).

Details: medicaments used to treat dermatitis

Compound | Toxicity
CN(Cc1cnc2nc(N)nc(N)c2n1)c1ccc(C(=O)N[C@@H](CCC(=O)O)C(=O)O)cc1 [methotrexate] | toxic
ivermectin | toxic
